# Laboratory results published in ChEMBL document CHEMBL1121878, “Synthesis of seleno- and thioguanine-platinum(II) complexes and their antitumor activity in mice” (1981).
# How the values were obtained:
# [1] = system: L1210; assay: In vitro inhibitory concentration required for 50% inhibition of L1210 cell growth; format: functional; settings: Mus musculus, read-out: ID50 (the source's name)
# [2] = system: L1210; assay: Effect dose of 50 mg/kg on day 3, before L1210 cell transplantation in mice; format: functional, Mus musculus
# [3] = system: L1210; assay: (§1) Median survival time at a compound dose of 100 mg/kg, in mice bearing L1210 cells on days 1 and 5; format: functional, Mus musculus
# [4] = The number of mice survived to that of total at a dose of 100 mg/kg on 30th day; 3/5; format: functional
# [5] = The number of mice survived to that of total when no compound dose was given on 30th day; format: functional
# [6] = system: L1210; assay: Median survival time when no dose was administered in mice bearing L1210 cells on days 1 and 5; format: functional, Mus musculus
# [7] = system: L1210; assay: (§2) Ratio of the median survival time (treated(T) versus control(C)) at a dose of 50 mg/kg, on days 1 and 5; format: functional, Mus musculus
# [8] = system: L1210; assay: Median survival time at a compound dose of 50 mg/kg, in mice bearing L1210 cells on days 1 and 5; format: functional, Mus musculus
# [9] = The number of mice survived to that of total at a dose of 50 mg/kg on 30th day; 1/5; format: functional
# [10] = system: L1210; assay: (§3) Ratio of the median survival time (treated(T) versus control(C)) at a dose of 100 mg/kg, on days 1 and 5; format: functional, Mus musculus
# [11] = The number of mice survived to that of total at a dose of 75 mg/kg on 30th day; 0/5; format: functional
# [12] = system: L1210; assay: Ratio of the median survival time (treated(T) versus control(C)) at a dose of 25 mg/kg, on days 1 and 5; format: functional, Mus musculus
# [13] = The number of mice survived to that of total at a dose of 50 mg/kg on 30th day; 0/5; format: functional
# [14] = The number of mice survived to that of total at a dose of 25 mg/kg on 30th day; 0/5; format: functional
# [15] = system: L1210; assay: Ratio of the median survival time (treated(T) versus control(C)) at a dose of 75 mg/kg on days 1 and 5; format: functional, Mus musculus
# [16] = system: L1210; assay: Median survival time at a compound dose of 75 mg/kg, in mice bearing L1210 cells on days 1 and 5; format: functional, Mus musculus
# [17] = system: L1210; assay: Median survival time at a compound dose of 25 mg/kg, in mice bearing L1210 cells on days 1 and 5; format: functional, Mus musculus
# [18] = system: L1210; assay: Median survival time at a compound dose of 400 mg/kg, in mice bearing L1210 cells on days 1 and 5; format: functional, organism-based; parameters: dose 400 mg/kg; settings: Mus musculus
# [19] = system: L1210; assay: Median survival time at a compound dose of 800 mg/kg (administered on days 1 & 5) in mice bearing L1210 cells; format: functional, organism-based; parameters: dose 800 mg/kg; settings: Mus musculus
# [20] = system: L1210; assay: Ratio of the median survival time (treated(T) versus control(C)) at a dose of 400 mg/kg, on days 1 and 5; format: functional, organism-based; parameters: dose 400 mg/kg; settings: Mus musculus
# [21] = The number of mice survived to that of total at a dose of 400 mg/kg on 30th day; 0/5; format: functional, organism-based; parameters: dose 400 mg/kg
# [22] = system: L1210; assay: Ratio of the median survival time (treated(T) versus control(C)) at a dose of 100x2 mg/kgxdays, on days 1 and 5; format: functional, organism-based; settings: Mus musculus
# [23] = system: L1210; assay: as §1; format: functional; settings: Mus musculus
# [24] = system: L1210; assay: Ratio of the median survival time (treated(T) versus control(C)) at a dose of 800 mg/kg, on days 1 and 5; format: functional, organism-based; parameters: dose 800 mg/kg; settings: Mus musculus
# [25] = The number of mice survived to that of total at a dose of 100 mg/kg on 30th day; 0/5; format: functional, organism-based; parameters: dose 100 mg/kg
# [26] = system: L1210; assay: Ratio of the median survival time (treated(T) versus control(C)) at a dose of 50x2 mg/kgxdays, on days 1 and 5; format: functional, organism-based; settings: Mus musculus
# [27] = The number of mice survived to that of total at a dose of 800 mg/kg on 30th day; 0/5; format: functional, organism-based; parameters: dose 800 mg/kg
# [28] = system: Mus musculus; assay: as §3; format: functional
# [29] = The number of mice survived to that of total at a dose of 100 mg/kg on 30th day; format: functional
# [30] = system: L1210; assay: Median survival time at a compound dose of 25 mg/Kg, in mice bearing L1210 cells on days 1 and 5; format: functional, Mus musculus
# [31] = The number of mice survived to that of total at a dose of 25 mg/Kg on 30th day: 4/5; format: functional
# [32] = system: Mus musculus; assay: as §2; format: functional
# [33] = system: Mus musculus; assay: Ratio of the median survival time (treated(T) versus control(C)) at a dose of 25 mg/Kg on days 1 and 5; format: functional
# [34] = The number of mice survived to that of total at a dose of 50 mg/Kg on 30th day; format: functional
# [35] = system: L1210; assay: Median survival time at a compound dose of 200 mg/kg, in mice bearing L1210 cells on days 1 and 5; Toxic; format: functional, organism-based; parameters: dose 200 mg/kg; settings: Mus musculus
compound,measurement,setting,value
O=c1[nH]c(=S)c2nc[nH]c2[nH]1,IC50,[1],10.6 µM
Nc1nc([SeH])c2[nH]cnc2n1,T/C,[2],100%
same,Median survival time,[3],>30 days
same,Ratio,[4],3
same,Ratio,[5],0
same,IC50,[1],0.00416 µM
same,Median survival time,[6],9 days
same,T/C,[7],200%
same,Median survival time,[8],18 days
same,Ratio,[9],1
same,T/C,[10],>300%
Nc1nc([SeH])c2ncn(C3O[C@H](CO)[C@H](O)[C@@H]3O)c2n1 (stereo partly drawn),Ratio,[11],0
same,T/C,[12],166.7%
same,Ratio,[13],0
same,Median survival time,[6],9 days
same,Ratio,[14],0
same,T/C,[7],144.4%
same,T/C,[15],144.4%
same,Median survival time,[8],13 days
same,Median survival time,[16],13 days
same,Median survival time,[17],15 days
"2-(2-Amino-6-selanyl-purin-9-yl)-5-hydroxymethyl-tetrahydro-furan-3,4-diol platinum complex",Median survival time,[18],12 days
same,Median survival time,[19],14 days
same,Ratio,[13],0
same,Ratio,[5],0
same,Median survival time,[6]; Mus musculus,9 days
same,T/C,[20],133%
same,Ratio,[21],0
same,T/C,[22],111%
same,Median survival time,[23],11 days
same,T/C,[24],156%
same,Median survival time,[8]; Mus musculus,12 days
same,Ratio,[25],0
same,T/C,[26],133%
same,Ratio,[27],0
Nc1nc2[nH]cnc2c(=S)[nH]1 [THIOGUANINE],T/C,[2],111%
same,T/C,[28],100%
same,Median survival time,[3],10 days
same,Ratio,[29],0
same,Ratio,[5],0
same,Median survival time,[30],>30 days
same,Median survival time,[6],10 days
same,Ratio,[31],4
same,T/C,[32],120%
same,T/C,[33],>300%
same,Ratio,[34],0
same,Median survival time,[35],Toxic
same,Median survival time,[8],12 days
